Reference: ChEMBL document CHEMBL1130960, “QSAR study of the peptidic fibrinogen inhibitors FK633, FR158999 and related derivatives, using a novel and useful hydrophobic descriptor (logPmw)” (Bioorg Med Chem Lett, 1998)

assay: Inhibition of binding to fibrinogen receptor

Structure (SMILES)	Log IC50
CC[C@H](C)[C@H](NC(=O)[C@H](CC(=O)O)NC(=O)CCCOc1ccc(C(=N)N)cc1)C(=O)O	-6.85
CC(C)[C@H](NC(=O)[C@H](CC(=O)O)NC(=O)CCCOc1ccc(C(=N)N)cc1)C(=O)N1CCS(=O)(=O)CC1	-7.5
CC(C)[C@H](NC(=O)[C@H](CC(=O)O)NC(=O)CCCOc1ccc(C(=N)N)cc1)C(=O)NC1CCCCC1	-6.7
CCN(CC)C(=O)[C@@H](NC(=O)[C@H](CC(=O)O)NC(=O)CCCOc1ccc(C(=N)N)cc1)C(C)C	-6.6
CC(C)[C@H](NC(=O)[C@H](CC(=O)O)NC(=O)CCCOc1ccc(C(=N)N)cc1)C(=O)N1CCOCC1	-7.1
CC(C)C(C)NC(=O)C(CC(=O)O)NC(=O)CCCOc1ccc(C(=N)N)cc1 (stereo unspecified)	-5.9
N=C(N)c1ccc(OCCCCC(=O)NC(CC(=O)O)C(=O)NC(CO)C(=O)O)cc1 (stereo unspecified)	-4.92
COc1ccc(CC(NC(=O)C(CC(=O)O)NC(=O)CCCCOc2ccc(C(=N)N)cc2)C(=O)O)cc1 (stereo unspecified)	-6.57
CC(C)[C@H](NC(=O)[C@H](CC(=O)O)NC(=O)CCCOc1ccc(C(=N)N)cc1)C(N)=O	-6.2
CCc1ccc(OCCNC(=O)C(CC(=O)O)NC(=O)CCCOc2ccc(C(=N)N)cc2)cc1 (stereo unspecified)	-6.5
CC(C)(C)CC(NC(=O)C(CC(=O)O)NC(=O)CCCOc1ccc(C(=N)N)cc1)C(=O)O (stereo unspecified)	-6.64
N=C(N)c1ccc(OCCCC(=O)NC(CC(=O)O)C(=O)NC(Cc2ccc(O)cc2)C(=O)O)cc1 (stereo unspecified)	-6.8
COc1ccc(CC(NC(=O)C(CC(=O)O)NC(=O)CCCOc2ccc(C(=N)N)cc2)C(=O)O)cc1 (stereo unspecified)	-6.89
CC(C)C(NC(=O)C(CC(=O)O)NC(=O)CCCCOc1ccc(C(=N)N)cc1)C(=O)O (stereo unspecified)	-6.64
CCCCC(NC(=O)C(CC(=O)O)NC(=O)CCCOc1ccc(C(=N)N)cc1)C(=O)O (stereo unspecified)	-7.12
COC(=O)C(Cc1ccc(O)cc1)NC(=O)C(CC(=O)O)NC(=O)CCCCOc1ccc(C(=N)N)cc1 (stereo unspecified)	-5.35
Cc1ccc(OCCNC(=O)C(CC(=O)O)NC(=O)CCCOc2ccc(C(=N)N)cc2)cc1C (stereo unspecified)	-6.3
N=C(N)c1ccc(OCCCCC(=O)NC(CC(=O)O)C(=O)NC(Cc2ccc(O)cc2)C(=O)O)cc1 (stereo unspecified)	-6.19
CC(C)c1ccc(OCCNC(=O)C(CC(=O)O)NC(=O)CCCOc2ccc(C(=N)N)cc2)cc1 (stereo unspecified)	-6.4
CC(C)C(NC(=O)C(CC(=O)O)NC(=O)CCCOc1ccc(C(=N)N)cc1)C(=O)O (stereo unspecified)	-6.96
CC(C)CC(NC(=O)C(CC(=O)O)NC(=O)CCCOc1ccc(C(=N)N)cc1)C(=O)O (stereo unspecified)	-6.87
